Experimental data as given in the NIST ThermoML archive (doi:10.1021/je900210h).
± gives the expanded uncertainty stated by the source.

Conditions: Fluid (supercritical or subcritical phases), Coaxial cylinder method

FCC(F)(F)F [1,1,1,2-tetrafluoroethane]
Conditions | thermal conductivity [W/m/K]
385.18 K, 4959 kPa | 0.0526 ± 0.0021
385.18 K, 4978 kPa | 0.0528 ± 0.0022
385.18 K, 5000 kPa | 0.053 ± 0.002
385.18 K, 5022 kPa | 0.053 ± 0.002
385.18 K, 5042 kPa | 0.053 ± 0.002
385.18 K, 5058 kPa | 0.053 ± 0.002
385.18 K, 5080 kPa | 0.053 ± 0.002
385.18 K, 5100 kPa | 0.053 ± 0.002
385.18 K, 5120 kPa | 0.053 ± 0.002
385.18 K, 5151 kPa | 0.0528 ± 0.0022
385.18 K, 5179 kPa | 0.0526 ± 0.0021
385.18 K, 5224 kPa | 0.0524 ± 0.0021
385.18 K, 5254 kPa | 0.0522 ± 0.0021
385.19 K, 4900 kPa | 0.0512 ± 0.0021
385.19 K, 4918 kPa | 0.0518 ± 0.0021
385.19 K, 5296 kPa | 0.0518 ± 0.0021
385.19 K, 5322 kPa | 0.0518 ± 0.0021
385.19 K, 5358 kPa | 0.0516 ± 0.0021
385.19 K, 5402 kPa | 0.0516 ± 0.0021
385.19 K, 5454 kPa | 0.0514 ± 0.0021
385.19 K, 5513 kPa | 0.0512 ± 0.0021
385.2 K, 4880 kPa | 0.0505 ± 0.0021
385.21 K, 4840 kPa | 0.0488 ± 0.002
385.22 K, 4820 kPa | 0.048 ± 0.002
385.23 K, 4800 kPa | 0.0471 ± 0.002
385.25 K, 4760 kPa | 0.0458 ± 0.002
385.26 K, 4730 kPa | 0.0446 ± 0.0019
385.28 K, 4700 kPa | 0.0431 ± 0.0019
385.29 K, 4670 kPa | 0.0421 ± 0.002
385.3 K, 4640 kPa | 0.0411 ± 0.0019
385.31 K, 4610 kPa | 0.0401 ± 0.0018
385.33 K, 4580 kPa | 0.0393 ± 0.0018
385.34 K, 4540 kPa | 0.0382 ± 0.0017
385.36 K, 4500 kPa | 0.0371 ± 0.0017
385.37 K, 4460 kPa | 0.0363 ± 0.0017
385.39 K, 4410 kPa | 0.0352 ± 0.0016
385.41 K, 4360 kPa | 0.0343 ± 0.0016
385.42 K, 4310 kPa | 0.0335 ± 0.0016
385.57 K, 4260 kPa | 0.0328 ± 0.0015
385.59 K, 4200 kPa | 0.032 ± 0.002
385.61 K, 4120 kPa | 0.0311 ± 0.0015
385.72 K, 5700 kPa | 0.0514 ± 0.0021
385.72 K, 5714 kPa | 0.0516 ± 0.0021
385.75 K, 4060 kPa | 0.0305 ± 0.0015
385.78 K, 3920 kPa | 0.0293 ± 0.0014
387.19 K, 7800 kPa | 0.0564 ± 0.0023
387.2 K, 7501 kPa | 0.0559 ± 0.0022
387.22 K, 7002 kPa | 0.0545 ± 0.0022
387.23 K, 6650 kPa | 0.0536 ± 0.0022
387.25 K, 6371 kPa | 0.0527 ± 0.0021
387.27 K, 9502 kPa | 0.0597 ± 0.0024
387.28 K, 18006 kPa | 0.0691 ± 0.0027
387.29 K, 17000 kPa | 0.0682 ± 0.0026
387.3 K, 8468 kPa | 0.0578 ± 0.0023
387.3 K, 16290 kPa | 0.0676 ± 0.0026
387.32 K, 14910 kPa | 0.0663 ± 0.0026
387.33 K, 13500 kPa | 0.0648 ± 0.0025
387.33 K, 14002 kPa | 0.0653 ± 0.0025
387.34 K, 13000 kPa | 0.0642 ± 0.0025
387.37 K, 11008 kPa | 0.0619 ± 0.0024
387.37 K, 11503 kPa | 0.0625 ± 0.0025
392.65 K, 180 kPa | 0.02136 ± 0.0012
394.44 K, 6457 kPa | 0.0507 ± 0.0021
394.44 K, 6523 kPa | 0.0509 ± 0.0021
394.44 K, 6557 kPa | 0.0511 ± 0.0021
394.45 K, 6140 kPa | 0.0494 ± 0.002
394.45 K, 6200 kPa | 0.0496 ± 0.0021
394.45 K, 6260 kPa | 0.0498 ± 0.0021
394.45 K, 6300 kPa | 0.05 ± 0.002
394.45 K, 6399 kPa | 0.0503 ± 0.0021
394.46 K, 5940 kPa | 0.0483 ± 0.002
394.46 K, 5980 kPa | 0.0487 ± 0.002
394.46 K, 6044 kPa | 0.0491 ± 0.002
394.46 K, 6100 kPa | 0.0492 ± 0.002
394.47 K, 5760 kPa | 0.0472 ± 0.002
394.47 K, 5767 kPa | 0.0472 ± 0.002
394.47 K, 5800 kPa | 0.0476 ± 0.002
394.47 K, 5811 kPa | 0.0476 ± 0.002
394.47 K, 5851 kPa | 0.048 ± 0.002
394.47 K, 5886 kPa | 0.048 ± 0.002
394.49 K, 5583 kPa | 0.0453 ± 0.0019
394.49 K, 5626 kPa | 0.0457 ± 0.0019
394.49 K, 5641 kPa | 0.046 ± 0.002
394.5 K, 5527 kPa | 0.0444 ± 0.0019
394.52 K, 5428 kPa | 0.043 ± 0.002
394.53 K, 5366 kPa | 0.0419 ± 0.0018
394.54 K, 5314 kPa | 0.0411 ± 0.0018
394.55 K, 5300 kPa | 0.0409 ± 0.0018
394.56 K, 5246 kPa | 0.04 ± 0.002
394.56 K, 6908 kPa | 0.0519 ± 0.0021
394.56 K, 7067 kPa | 0.0523 ± 0.0021
394.57 K, 5176 kPa | 0.039 ± 0.002
394.57 K, 6665 kPa | 0.0513 ± 0.0021
394.57 K, 6720 kPa | 0.0515 ± 0.0021
394.57 K, 6754 kPa | 0.0515 ± 0.0021
394.57 K, 6800 kPa | 0.0515 ± 0.0021
394.6 K, 5055 kPa | 0.0374 ± 0.0017
394.68 K, 7457 kPa | 0.0533 ± 0.0022
394.68 K, 7521 kPa | 0.0535 ± 0.0022
394.68 K, 7635 kPa | 0.0537 ± 0.0022
394.69 K, 7159 kPa | 0.0526 ± 0.0021
394.69 K, 7321 kPa | 0.0528 ± 0.0022
394.81 K, 7706 kPa | 0.0538 ± 0.0022
394.81 K, 7827 kPa | 0.0541 ± 0.0022
394.88 K, 4950 kPa | 0.036 ± 0.002
394.88 K, 4978 kPa | 0.0363 ± 0.0016
394.89 K, 4890 kPa | 0.0353 ± 0.0016
394.91 K, 4821 kPa | 0.0346 ± 0.0016
394.93 K, 4722 kPa | 0.0335 ± 0.0016
394.94 K, 4649 kPa | 0.0328 ± 0.0015
394.95 K, 4583 kPa | 0.0322 ± 0.0015
395.23 K, 4495 kPa | 0.0315 ± 0.0015
395.24 K, 4405 kPa | 0.0309 ± 0.0015
403.68 K, 7203 kPa | 0.0484 ± 0.002
403.69 K, 7105 kPa | 0.048 ± 0.002
403.69 K, 7364 kPa | 0.049 ± 0.002
403.82 K, 6973 kPa | 0.0475 ± 0.002
403.83 K, 6852 kPa | 0.0468 ± 0.002
404.23 K, 6723 kPa | 0.046 ± 0.002
404.23 K, 6754 kPa | 0.0461 ± 0.0019
404.34 K, 6434 kPa | 0.044 ± 0.002
404.34 K, 6516 kPa | 0.0446 ± 0.0019
404.36 K, 6559 kPa | 0.0449 ± 0.0019
404.36 K, 6640 kPa | 0.0453 ± 0.0019
404.38 K, 6342 kPa | 0.0433 ± 0.0019
404.4 K, 6039 kPa | 0.041 ± 0.002
404.4 K, 6080 kPa | 0.0413 ± 0.0018
404.42 K, 5967 kPa | 0.0402 ± 0.0018
404.43 K, 5860 kPa | 0.0393 ± 0.0017
404.43 K, 5908 kPa | 0.0396 ± 0.0017
404.44 K, 5814 kPa | 0.0388 ± 0.0017
404.45 K, 5750 kPa | 0.0383 ± 0.0017
404.46 K, 5668 kPa | 0.0375 ± 0.0017
404.47 K, 5579 kPa | 0.0368 ± 0.0017
404.48 K, 5494 kPa | 0.0361 ± 0.0016
404.49 K, 5419 kPa | 0.0355 ± 0.0016
404.5 K, 5330 kPa | 0.0349 ± 0.0016
404.51 K, 5242 kPa | 0.0342 ± 0.0016
404.65 K, 5162 kPa | 0.0336 ± 0.0016
404.67 K, 5039 kPa | 0.0329 ± 0.0015
404.68 K, 4909 kPa | 0.0321 ± 0.0015
404.7 K, 4754 kPa | 0.0312 ± 0.0015
404.71 K, 4641 kPa | 0.0307 ± 0.0015
404.73 K, 4451 kPa | 0.0298 ± 0.0014
404.73 K, 4467 kPa | 0.0298 ± 0.0014
404.73 K, 4523 kPa | 0.0301 ± 0.0014
404.76 K, 4201 kPa | 0.0287 ± 0.0014
404.76 K, 4278 kPa | 0.029 ± 0.002
404.77 K, 4070 kPa | 0.0283 ± 0.0014
405.05 K, 3914 kPa | 0.0278 ± 0.0014
405.06 K, 3790 kPa | 0.0274 ± 0.0014
405.07 K, 3698 kPa | 0.0271 ± 0.0014
405.25 K, 2700 kPa | 0.0252 ± 0.0013
405.25 K, 2863 kPa | 0.0254 ± 0.0013
405.26 K, 2524 kPa | 0.0249 ± 0.0013
405.27 K, 2343 kPa | 0.0247 ± 0.0013
405.34 K, 3411 kPa | 0.0264 ± 0.0013
405.46 K, 8835 kPa | 0.0521 ± 0.0021
405.47 K, 8558 kPa | 0.0515 ± 0.0021
405.48 K, 7814 kPa | 0.0499 ± 0.0021
405.49 K, 7506 kPa | 0.049 ± 0.002
405.81 K, 1930 kPa | 0.0243 ± 0.0013
406.09 K, 1196 kPa | 0.0236 ± 0.0013
406.88 K, 18500 kPa | 0.0652 ± 0.0025
406.9 K, 16345 kPa | 0.063 ± 0.003
406.91 K, 15679 kPa | 0.0623 ± 0.0025
406.93 K, 14350 kPa | 0.0608 ± 0.0024
406.94 K, 13921 kPa | 0.0603 ± 0.0024
406.96 K, 12915 kPa | 0.0591 ± 0.0024
406.99 K, 11426 kPa | 0.0569 ± 0.0023
407 K, 10911 kPa | 0.0562 ± 0.0023
407.01 K, 10638 kPa | 0.0557 ± 0.0022
426.86 K, 160 kPa | 0.02469 ± 0.0013
436.44 K, 180 kPa | 0.02542 ± 0.0013
446.25 K, 200 kPa | 0.02665 ± 0.0014
446.25 K, 760 kPa | 0.02661 ± 0.0014
451.17 K, 180 kPa | 0.02683 ± 0.0014
455.69 K, 100 kPa | 0.0268 ± 0.0014
455.92 K, 680 kPa | 0.02719 ± 0.0014
466.31 K, 650 kPa | 0.02846 ± 0.0014
476.24 K, 100 kPa | 0.02922 ± 0.0014
496.18 K, 100 kPa | 0.0311 ± 0.0015
515.97 K, 100 kPa | 0.03304 ± 0.0015
